Results on two compounds are retold here after patent publication US4229477A, “Pharmaceutical compositions containing bromhexine and method of treating diabetic nephropathy therewith” (Boehringer Ingelheim GmbH, priority 1978, dated 1980).

In data set [1] the test system is glycoprotein metabolism. The experiment in a line: Effect of bromhexine on glycoprotein metabolism: urinary excretion of carbohydrate-containing material, diabetics. Type of data set: in vivo, humans. The method, then: (§1) The effect of N-(2-amino-3,5-dibromo-benzyl)-N-methyl-cyclohexylammonium chloride (Bromhexine) on glycoprotein metabolism was determined as follows:
(§2) 24 hour collections were made from 8 normal healthy humans (4 women and 4 men) and 8 diabetics (1 woman and 7 men) before and after a 3 to 4 week period of treating each subject orally 3 times with 24 mg of bromhexine. A 20% by volume aliquot was taken from each urine specimen and freeze-dried.
(§3) The dried material (ca 1 gm) was dissolved in the minimum quantity of distilled water and the solution was chromatographed with water on a Sephadez G-50 column (length: 148 cm; diameter: 3.4 cm). The carbohydrate-containing fraction was collected and subjected to ultrafiltration using a UM-05 membrane (Amicon Ultrafiltration Cell-Model 202). The filtrate obtained was again freeze-dried.
(§4) The dried material (ca 1 mg) was analyzed for carbohydrate, using gas-liquid chromatography. In this procedure, the sample, together with internal standards, was first subjected to methanolysis with 1.0 M HCl in dry methanol (0.5 ml) for 24 hours at 85° C. The resulting solution was neutralized and then treated with acetic acid anhydride (0.05 ml) for 6 hours. On completion of the treatment the solution obtained was centrifuged, and the supernatant liquid was transferred to a clean flask, dried and stored in a dessicator. When required for gas chromatography, the dried material was triturated with a trimethylsilylating mixture, and the resulting trimethylsilyl ethers of the methyl glycosides were subjected to gas chromatography (140°-200° C. at 0.5° C./min.).
5 patients were maintained on insulin, 2 on oral hypoglycemic agents and 1 on diet alone. Diabetic treatment was not changed during the study. 3 patients suffered varying degrees of retinopathy, 1 had ischaemic heart disease and 1 had intermittent proteinuria.

Data set [2] deals with mice. To be noted: British Pat. No. 968,254; cited from earlier work.
The subject of data set [3] is glycoprotein metabolism. Briefly: Effect of bromhexine on glycoprotein metabolism: urinary excretion of carbohydrate-containing material, healthy subjects. Format: in vivo, humans. Particulars: after treatment. The method, then:
as §1, §2, §3, §4

The mark [4] stands for this setting: healthy subjects, oral, 3 times 24 mg, 3 to 4 weeks, before 121.

The structures appear in SMILES notation.

As to `CN(Cc1cc(Br)cc(Br)c1N)C1CCCCC1` [N-(2-amino-3,5-dibromo-benzyl)-N-methyl-cyclohexylamine], the “proportion of saccharide and glycopeptide excreted” value in data set [1] (diabetics, 15 to 30 mg, 3 to 4 times per day) is recorded as “strongly reduced to levels equivalent to those of a normal healthy subject”.

Take `CN(Cc1cc(Br)cc(Br)c1N)C1CCCCC1.Cl` [bromhexine, N-(2-amino-3,5-dibromo-benzyl)-N-methyl-cyclohexylammonium chloride]: the “excretion of carbohydrate-containing material” value in data set [1] (diabetic subjects, after treatment) was “considerable decrease”. Also, the “24 - Hour Volume” value in data set [1] (diabetics, after treatment, oral, 3 times 24 mg, 3 to 4 weeks, 24 hour urine, before 1,694) is 1,686 ml; in data set [3] (healthy subjects, oral, 3 times 24 mg, 3 to 4 weeks, 24 hour urine, before 1,281), 1,406 ml. Also, the Fraction dry weight in data set [1] (diabetics, after treatment, oral, 3 times 24 mg, 3 to 4 weeks, before 8.7) is on record as 6.1 gm; in data set [3] (healthy subjects, oral, 3 times 24 mg, 3 to 4 weeks, before 4.2), 4.4 gm. The Total dry weight in data set [1] (diabetics, after treatment, oral, 3 times 24 mg, 3 to 4 weeks, before 102.6) turned out to be 110.7 gm; in data set [3] (healthy subjects, oral, 3 times 24 mg, 3 to 4 weeks, before 36.3) it was 44.0 gm. Besides, the “Carbohydrate content: N-Acetylneuraminic acid” value in data set [1] (diabetics, after treatment, oral, 3 times 24 mg, 3 to 4 weeks, before 195) is reported as 145 μMol/24 hours; in data set [3] (healthy subjects, oral, 3 times 24 mg, 3 to 4 weeks, before 94), 147 μMol/24 hours. The “Carbohydrate content: Mannose” value in data set [1] (diabetics, after treatment, oral, 3 times 24 mg, 3 to 4 weeks, before 205) worked out at 121 μMol/24 hours; in data set [3] (setting [4]), 169 μMol/24 hours. For the same compound, the “Carbohydrate content: Fucose” value in data set [1] (diabetics, after treatment, oral, 3 times 24 mg, 3 to 4 weeks, before 259) is 203 μMol/24 hours; in data set [3] (setting [4]), 224 μMol/24 hours. Moreover, the “Carbohydrate content: N-Acetylgalactosamine” value in data set [1] (diabetics, after treatment, oral, 3 times 24 mg, 3 to 4 weeks, before 264) is given as 176 μMol/24 hours; in data set [3] (healthy subjects, oral, 3 times 24 mg, 3 to 4 weeks, before 139) it was 196 μMol/24 hours. Moreover, the “Carbohydrate content: N-Acetylglucosamine” value in data set [1] (diabetics, after treatment, oral, 3 times 24 mg, 3 to 4 weeks, before 313) was found to be 181 μMol/24 hours; in data set [3] (healthy subjects, oral, 3 times 24 mg, 3 to 4 weeks, before 204), 287 μMol/24 hours. In addition, the “Carbohydrate content: Galactose” value in data set [1] (diabetics, after treatment, oral, 3 times 24 mg, 3 to 4 weeks, before 616) came out at 383 μMol/24 hours; in data set [3] (healthy subjects, oral, 3 times 24 mg, 3 to 4 weeks, before 258), 364 μMol/24 hours. The “Carbohydrate content: Glucuronic acid” value was 987 μMol/24 hours in data set [1] (diabetics, after treatment, oral, 3 times 24 mg, 3 to 4 weeks, before 1,854) and 1,573 μMol/24 hours in data set [3] (healthy subjects, oral, 3 times 24 mg, 3 to 4 weeks, before 1,085). Besides, the “Carbohydrate content: Glucose” value in data set [1] (diabetics, after treatment, oral, 3 times 24 mg, 3 to 4 weeks, before 12,609) is recorded as 7,241 μMol/24 hours; in data set [3] (healthy subjects, oral, 3 times 24 mg, 3 to 4 weeks, before 329), 425 μMol/24 hours. For the same compound, the “animals died (acute oral toxicity)” value in data set [2] is on record as 0 out of 10. Besides, the “urinary excretion of carbohydrate-containing material” value in data set [3] (normal subjects) is given as “insignificant rise”.
